Results on 18 molecules are retold here after PubChem BioAssay (NCI).

Test in all cases: growth of human tumour cells (NCI), 48 h
The test system of assay [1] is ACHN renal.
Assay [2] concerns CCRF-CEM leukemia.
Assay [3] has as its system HCC-2998 colon.
In assay [4] the test system is HCT-116 colon.
Assay [5] deals with HOP-62 NSCLC.
The subject of assay [6] is HT29 colon.
The subject of assay [7] is KM12 colon.
For assay [8], the system named is NCI-H522 lung.
For assay [9], the system named is SNB-75 CNS.
The subject of assay [10] is TK-10 renal.

Values joined by “and” are separate entries in the source; they are usually repeats but may differ in a detail not shown here. Equal values may be shown once.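 1) Cells in 96-well plates. 2) Compound, 48 h, 5 concentrations. 3) Linear interpolation between surrounding doses. 4) Unreached endpoint = highest concentration. The concentration for 50% growth inhibition is given as GI50. The concentration for full growth arrest is given as TGI.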 Bounds are passed on as bounds.

In the case of `C=C1C(=O)O[C@H]2[C@H]1CC/C(COC(=O)NCc1cccc(OC)c1)=C\CC[C@@]1(C)O[C@@H]21`, the GI50 in assay [1] is 1170 nM; in assay [2], 1140 nM; in assay [3], 15300 nM; in assay [4], 1270 nM; in assay [5] it was 13.2 µM; in assay [6] it was 1790 nM. For the same molecule, the GI50 in [7] was 9.98 µM; in [8], 1.22 µM; in [9], 12200 nM; in assay [10] it was 1.85 µM. In addition, the TGI in assay [1] was 2.41 µM; in assay [2], 4.76 µM; in assay [3] it was 31.1 µM; in [4], 2.76 µM; in [5], 28.3 µM; in assay [6], 3.87 µM. The TGI in assay [7] came to 25.3 µM; in [8], 2.8 µM; in assay [9], 24.7 µM; in assay [10], 3.87 µM.

For `c1ccc([P+](CCC[P+](c2ccccc2)(c2ccccc2)c2ccccc2)(c2ccccc2)c2ccccc2)cc1`, the TGI in assay [1], in assay [2], in [3], in [4], in assay [5] and in [6] was greater than 100 µM each time. The TGI in [7] is greater than 100 µM; in assay [8] it was > 100 µM and 24.8 µM; in assay [9], 86 µM and 67.6 µM; in assay [10] it was greater than 100 µM. Further, the GI50 is 7260 nM in assay [2]; 7270 nM in assay [4]; 18 µM in [5]; 9890 nM in assay [6]; 3.86 µM in assay [7]; 3.53 µM in [8]. Moreover, in assay [9], the GI50 is 4560 nM.

Consider `Clc1ccc2c(NCCN3CCN(c4ccnc(N5CCCC5)n4)CC3)ccnc2c1`, for which the GI50 is 2680 nM in assay [1]; 3650 nM in assay [2]; 1940 nM in assay [3]; 2510 nM in assay [4]; 3.34 µM in assay [5]; 1340 nM in assay [6]. The GI50 in assay [7] was 4.02 µM; in [8], 3.27 µM; in assay [9] it was 1760 nM; in [10], 3.9 µM. Also, the TGI in [1] turned out to be 8.01 µM; in assay [2], 32.3 µM; in assay [3] it was 4.08 µM; in [4], 10.4 µM; in assay [5], 16.2 µM; in [6] it was 12.2 µM. For the same molecule, the TGI in [7] stood at 17.4 µM; in assay [8], 11.1 µM; in [9], 7.62 µM; in assay [10], 21.3 µM.

Regarding `O/N=C1/C(=C/c2ccc(Cl)cc2)CCCC1C(NO)c1ccc(Cl)cc1` (configuration not stated), the TGI was greater than 100 µM in assay [1]; 42.6 µM in assay [2]; 47.4 µM in [3]; 67.1 µM in [4]; 68.9 µM in assay [5]; 36.6 µM in assay [6]. For the same molecule, the TGI in [7] was 40.6 µM; in [8], 62.8 µM; in assay [9], 39.5 µM; in assay [10], greater than 100 µM.

Regarding `c1cc(-c2cnn3nc(N4CCOCC4)ccc23)nc(NC2CC2)n1`, the GI50 in assay [1] is 5700 nM; in assay [2], 4950 nM; in assay [3], 8640 nM; in assay [4] it was 7550 nM; in assay [5], 9.27 µM; in [6], 8350 nM. Also, the GI50 in [7] was 8.13 µM; in assay [8], 13.5 µM; in assay [9] it was 5990 nM; in assay [10] it was 7.7 µM. Also, the TGI is greater than 25 µM in assay [1]; greater than 25 µM in [2]; greater than 25 µM in assay [3]; 24.6 µM in [4]; greater than 25 µM in assay [5]; greater than 25 µM in [6]. Besides, the TGI in assay [7] was greater than 25 µM; in assay [8] it was greater than 25 µM; in [9], 18.6 µM; in [10], 20.3 µM.

On to `C[C@@]1(CBr)C[C@@](C)(/C=C/Cl)[C@@H](Cl)C[C@H]1Cl`, for which the TGI in assay [1] is 25.7 µM; in assay [2] it was 19.8 µM; in assay [3] it was 29.8 µM; in assay [4], 21.2 µM; in assay [5] it was 27.5 µM; in assay [6], 22.4 µM. Besides, the TGI in [7] stood at 22.5 µM; in assay [8], 14.5 µM; in [9] it was 30.5 µM; in assay [10], 28.7 µM.

`Cc1ccc(C(=O)Nc2ccccc2C(=O)N/N=C(\c2ccccc2)c2ccccn2)cc1`: the GI50 in assay [1] is 166 nM; in assay [2], 167 nM; in [3], 381 nM; in [4], 348 nM; in assay [5], 0.27 µM; in assay [6], 250 nM. For the same molecule, the GI50 in [7] was 0.388 µM; in [8] it was 0.582 µM; in assay [9], 1180 nM; in [10] it was 3.58 µM. The TGI was greater than 25.9 µM in [1]; greater than 100 µM in [2]; greater than 100 µM in [3]; greater than 100 µM in assay [4]; greater than 100 µM in [5]; greater than 100 µM in assay [6]. Also, the TGI in assay [7] was greater than 100 µM; in assay [8], greater than 100 µM; in [9] it was greater than 39.2 µM; in assay [10], greater than 100 µM.

Consider `CCN1CCN(c2nc(C)cc(N(CCCNc3ccnc4cc(Cl)ccc34)Cc3ccco3)n2)CC1`, for which the GI50 in assay [1] is 2580 nM; in assay [2], 3510 nM; in assay [3], 2050 nM; in [4] it was 2050 nM; in assay [5], 3.22 µM; in [6], 2350 nM. The GI50 is 5.07 µM in [7], 3.12 µM in assay [8], 1700 nM in assay [9] and 2.13 µM in assay [10]. The TGI is 6.99 µM in assay [1]; 12.2 µM in [2]; 5.89 µM in assay [3]; 10.9 µM in [4]; 14.1 µM in assay [5]; 8.72 µM in assay [6]. Further, the TGI in assay [7] was found to be 19.4 µM; in assay [8], 12 µM; in assay [9], 7.55 µM; in assay [10], 4.9 µM.

For `CC1(C)CC(O)CCCCCCOc2c(CN)cccc2NC(=O)c2nc(cnc2N)-c2ccc(cc2)S1(=O)=O` (configuration not stated), the GI50 in assay [1] is 21.4 nM; in assay [2], less than 10 nM; in assay [3], 2010 nM; in [4] it was 187 nM; in [5], 1.41 µM; in [6], 309 nM. The GI50 in assay [7] was 0.843 µM; in assay [8], 1.22 µM; in [9], 223 nM; in [10], 1.52 µM. For the same molecule, the TGI in assay [1] came out at 2.04 µM; in [2], 5.53 µM; in [3], 4.24 µM; in assay [4] it was 1.03 µM; in assay [5] it was 3.75 µM; in assay [6] it was 3.75 µM. For the same molecule, the TGI in [7] was 2.59 µM; in assay [8], 2.96 µM; in assay [9], 1.74 µM; in assay [10], 3.86 µM.

`NC(=O)C12CCC1C1CCCCC12N1CCOCC1` (configuration not stated): the TGI in assay [1], in assay [2], in assay [3], in assay [4], in assay [5] and in [6] was greater than 100 µM throughout. In addition, the TGI in assay [7], in assay [8], in [9] and in assay [10] was greater than 100 µM each time.

Consider `C=C(C)C(=O)N1c2ccc(OC)cc2CC1C(=O)OCC` (configuration not stated), for which the TGI in assay [1], in assay [2], in [3], in [4], in assay [5] and in [6] was greater than 100 µM in each case. Besides, the TGI in assay [7], in [8], in assay [9] and in assay [10] was greater than 100 µM each time.

Turning to `C#CCOc1cccc(Nc2ncnc3c2ncn3C2CCN(C(=O)CCl)C2)c1` (configuration not stated), the GI50 is 17700 nM in assay [1]; 4180 nM in assay [2]; 18200 nM in assay [3]; 22700 nM in assay [4]; 33.3 µM in assay [5]; 19400 nM in assay [6]. Moreover, the GI50 was 23.4 µM in [7], 5.02 µM in assay [8], 34100 nM in assay [9] and 17.1 µM in assay [10]. Besides, the TGI in [1] was 31.8 µM; in assay [2] it was 26.3 µM; in [3] it was 37.3 µM; in assay [4], 59.8 µM; in [5], greater than 100 µM; in [6], 37.4 µM. Further, the TGI in assay [7] was 58.2 µM; in assay [8], 19.7 µM; in assay [9], greater than 100 µM; in assay [10] it was 31.7 µM.

Consider `COc1cc(C(=C2SCCS2)c2nccc3cc(OC)c(OC)cc23)c([N+](=O)[O-])cc1OC`, for which the TGI in assay [1], in assay [2], in assay [3], in assay [4], in assay [5] and in assay [6] was greater than 100 µM throughout. The TGI in assay [7], in assay [8], in assay [9] and in assay [10] was greater than 100 µM in each case.

With `CCN1CCN(c2cc(C)nc(NCc3cc(Nc4ccnc5cc(Cl)ccc45)ccc3F)n2)CC1`, the GI50 in assay [1] was 2890 nM; in assay [2], 2550 nM; in [3], 2590 nM; in [4], 1200 nM; in assay [5] it was 3.59 µM; in assay [6], 957 nM. Also, the GI50 in assay [7] is 5.3 µM; in assay [8] it was 7.21 µM; in [9] it was 10500 nM; in assay [10], 18.8 µM. Besides, the TGI in assay [1] was 11.3 µM; in assay [2], greater than 100 µM; in assay [3], 31.3 µM; in [4], 4.1 µM; in assay [5], 24.1 µM; in [6], 5.32 µM. The TGI in assay [7] was greater than 100 µM; in assay [8] it was 36 µM; in [9], 30.8 µM; in assay [10], 45.4 µM.

`COc1cc2c(cc1-c1c(C)noc1C)ncc1[nH]c(=O)n([C@H](C)c3ccccn3)c12`: the GI50 is 1200 nM in [1]; 1030 nM in assay [2]; 2500 nM in assay [3]; 1940 nM in assay [4]; 0.94 µM in assay [5]; 244 nM in assay [6]. The GI50 is 3.01 µM in [7], 0.0975 µM in assay [8], less than 37.9 nM in [9] and 0.257 µM in assay [10]. Also, the TGI is greater than 100 µM in assay [1]; greater than 100 µM in assay [2]; 17.8 µM in [3]; greater than 100 µM in assay [4]; greater than 100 µM in [5]; greater than 100 µM in assay [6]. Also, the TGI in [7] is greater than 100 µM; in assay [8], 7.07 µM; in assay [9] it was greater than 43.7 µM; in assay [10], 22 µM.

With `CO[C@H]1/C=C/C[C@H](C)[C@@H](C)S(=O)(=O)NC(=O)c2ccc3c(c2)N(C[C@@H]2CC[C@H]21)C[C@@]1(CCCc2cc(Cl)ccc21)CO3`, the GI50 was 3390 nM in [1]; 1300 nM in assay [2]; 1650 nM in assay [3]; 2750 nM in assay [4]; 2.35 µM in assay [5]; 2130 nM in [6]. The GI50 in assay [7] was 3.17 µM; in assay [8], 1.39 µM; in assay [9], 1340 nM; in assay [10], 2.8 µM. The TGI in assay [1] was 11.8 µM; in [2] it was 5.03 µM; in assay [3], 3.45 µM; in [4], 8.35 µM; in [5], 6.2 µM; in assay [6], 5.16 µM. In addition, the TGI in assay [7] came to 11 µM; in assay [8], 3.3 µM; in assay [9], 3.03 µM; in [10], 11.1 µM.

`C[n+]1ccc2[nH]c3ccccc3c2c1`: the TGI in assay [1], in [2], in assay [3], in [4], in assay [5] and in assay [6] was greater than 100 µM each time. Besides, the TGI in [7], in [8], in assay [9] and in assay [10] was greater than 100 µM in each case.

Consider `CN(C(=O)C1CC1)C1C2CN3CCC(O2)C13` (configuration not stated), for which the TGI in [1], in assay [2], in assay [3], in [4], in [5] and in assay [6] was greater than 100 µM in each case. The TGI in assay [7], in assay [8], in assay [9] and in assay [10] was greater than 100 µM throughout.
